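A five-concentration, 48-hour dose response in 96-well plates underlies each endpoint, interpolated linearly between surrounding concentrations. Definition used: TGI = concentration required for complete inhibition of growth.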
Tests used:
Test in all cases: inhibition of tumour cell growth, NCI panel, 48 h
[1] = test system: A549 NSCLC
[2] = test system: DMS 273 small cell lung
[3] = test system: EKVX NSCLC
[4] = test system: HOP-18 NSCLC
[5] = test system: HT29 colon
[6] = test system: KM20L2 colon
[7] = test system: LOX IMVI melanoma
[8] = test system: M14 melanoma
[9] = test system: NCI-H522 lung
[10] = test system: SNB-78 CNS
[11] = test system: T-47D breast
[12] = test system: UO-31 renal

CC1(C)OCN(c2ccc(Cl)cc2)Cn2c1nc1ccccc12
TGI [1]: > 100 µM | TGI [2]: > 100 µM | TGI [3]: > 100 µM | TGI [4]: > 100 µM | TGI [5]: > 100 µM | TGI [6]: > 100 µM | TGI [7]: > 100 µM | TGI [8]: > 100 µM | TGI [9]: > 100 µM | TGI [10]: > 100 µM | TGI [11]: > 100 µM | TGI [12]: 97.1 µM

COc1cc2c(cc1C)n(O)c(C)c(C(=O)C/C(=N/NC(=O)C[N+](C)(C)C)C(=O)Nc1cccc(Cl)c1C)[n+]2=O
TGI [1]: > 100 µM | TGI [2]: > 100 µM | TGI [3]: > 100 µM | TGI [4]: > 100 µM | TGI [5]: > 100 µM | TGI [6]: > 100 µM | TGI [7]: > 100 µM | TGI [8]: > 100 µM | TGI [9]: > 100 µM | TGI [10]: > 100 µM | TGI [12]: > 100 µM

O=[N+]([O-])c1ccccc1C1N2CCCCC2[C@@H]2c3[nH]c4ccccc4c3CCN12 (some centres undefined)
TGI [1]: 35.8 µM | TGI [2]: 23.4 µM | TGI [3]: 41.3 µM | TGI [4]: > 100 µM | TGI [5]: 20.8 µM | TGI [6]: 25.1 µM | TGI [8]: 26.7 µM | TGI [10]: 32.2 µM | TGI [12]: 23.5 µM

O=c1c([Se]c2coc3ccccc3c2=O)coc2ccccc12
TGI [1]: 20.9 µM | TGI [2]: 24 µM | TGI [3]: 33.6 µM | TGI [4]: 29.3 µM | TGI [5]: 32.4 µM | TGI [6]: 26.4 µM | TGI [7]: 29.5 µM | TGI [8]: 28.2 µM | TGI [9]: 32.5 µM | TGI [10]: 34.7 µM | TGI [12]: 26.3 µM

CC[C@@H]1OC2(C)CC(S(=O)(=O)c3ccccc3)CC1O2 (some centres undefined)
TGI [1]: > 100 µM | TGI [2]: > 100 µM | TGI [3]: > 100 µM | TGI [4]: > 100 µM | TGI [5]: > 100 µM | TGI [6]: > 100 µM | TGI [8]: > 100 µM | TGI [9]: > 100 µM | TGI [10]: > 100 µM | TGI [12]: > 100 µM

C[Si](C)(C)/C=C/CN1C(=O)CCC1O (centres undefined)
TGI [1]: > 100 µM | TGI [2]: > 100 µM | TGI [3]: > 100 µM | TGI [4]: > 100 µM | TGI [5]: > 100 µM | TGI [6]: > 100 µM | TGI [7]: > 100 µM | TGI [8]: > 100 µM | TGI [9]: > 100 µM | TGI [10]: > 100 µM | TGI [12]: > 100 µM

Cc1nc(C(N)=S)sc1C(=O)/C=C/c1cccc(O)c1
TGI [1]: > 100 µM | TGI [2]: > 100 µM | TGI [3]: > 100 µM | TGI [4]: > 100 µM | TGI [5]: > 100 µM | TGI [6]: > 100 µM | TGI [7]: > 100 µM | TGI [9]: > 100 µM | TGI [10]: > 100 µM | TGI [12]: > 100 µM

COC(=O)C1=C(C(=O)OC)C2(C(=O)OC)OC1(OC)C(C1(C(=O)OC)C(C(=O)OC)=C1C(=O)OC)=C2C(=O)OC (centres undefined)
TGI [1]: > 100 µM | TGI [2]: > 100 µM | TGI [3]: > 100 µM | TGI [4]: > 100 µM | TGI [5]: > 100 µM | TGI [6]: > 100 µM | TGI [7]: > 100 µM | TGI [8]: > 100 µM | TGI [9]: > 100 µM | TGI [10]: > 100 µM | TGI [12]: > 100 µM

COC1=C(OC)CCC(/C(C#N)=C/c2ccc(OC)c(OC)c2)=C1
TGI [1]: > 100 µM | TGI [2]: > 100 µM | TGI [4]: > 100 µM | TGI [5]: > 100 µM | TGI [6]: > 100 µM | TGI [7]: > 100 µM | TGI [8]: > 100 µM | TGI [9]: 70.5 µM | TGI [10]: > 100 µM | TGI [12]: > 100 µM

CCc1cccc(C)c1NC(=O)NS(=O)(=O)c1ccc(C)cc1
TGI [1]: > 100 µM | TGI [2]: > 100 µM | TGI [3]: > 100 µM | TGI [4]: > 100 µM | TGI [6]: > 100 µM | TGI [7]: > 100 µM | TGI [8]: > 100 µM | TGI [9]: > 100 µM | TGI [10]: > 100 µM | TGI [12]: > 100 µM

O=[N+]([O-])c1ccc(Cl)c(C2SCc3nc4ccccc4n32)c1 (centres undefined)
TGI [1]: > 100 µM | TGI [2]: > 100 µM | TGI [3]: > 100 µM | TGI [4]: 67.7 µM | TGI [5]: > 100 µM | TGI [9]: > 100 µM | TGI [10]: > 100 µM | TGI [12]: 66.1 µM

Cc1cc(C)c(C(=O)OC(c2ccccc2)C(c2ccccc2)N2CCOCC2)c(C)c1 (centres undefined)
TGI [1]: > 100 µM | TGI [2]: > 100 µM | TGI [3]: > 100 µM | TGI [4]: > 100 µM | TGI [5]: > 100 µM | TGI [6]: > 100 µM | TGI [7]: > 100 µM | TGI [8]: > 100 µM | TGI [9]: > 100 µM | TGI [10]: > 100 µM | TGI [12]: > 100 µM

CC1=C2C(c3ccccc3)(c3ccccc3)C3C=CC2(C=N3)N(C(=O)NC2CCCCC2)C1=O (centres undefined)
TGI [1]: 32.8 µM | TGI [2]: 33.2 µM | TGI [3]: 28.7 µM | TGI [4]: 34.3 µM | TGI [6]: 30.6 µM | TGI [7]: 29.5 µM | TGI [8]: 31.2 µM | TGI [10]: 31.9 µM | TGI [12]: 27.3 µM

COc1ccccc1/C=C\c1cc(OC)c(OC)c(OC)c1
TGI [1]: > 100 µM | TGI [2]: > 100 µM | TGI [3]: > 100 µM | TGI [4]: > 100 µM | TGI [5]: > 100 µM | TGI [7]: > 100 µM | TGI [8]: > 100 µM | TGI [9]: 45.5 µM | TGI [10]: > 100 µM | TGI [12]: 60.4 µM

Cn1c(O)c(C(=O)Nc2ccc([N+](=O)[O-])cc2)c(=O)n(C)c1=S
TGI [1]: 32.5 µM | TGI [3]: > 23.2 µM | TGI [4]: 6.85 µM | TGI [5]: 8.33 µM | TGI [6]: 20.4 µM | TGI [7]: > 24.9 µM | TGI [8]: 22.9 µM | TGI [9]: > 100 µM | TGI [12]: 12.8 µM

O=c1nc2cc(-c3ccccc3)[nH]c2nn1-c1c(Cl)cc(Cl)cc1Cl
TGI [1]: 91.7 µM | TGI [2]: > 100 µM | TGI [3]: 74 µM | TGI [4]: 44.9 µM | TGI [5]: 88.7 µM | TGI [6]: 57.5 µM | TGI [7]: 50 µM | TGI [8]: 59.3 µM | TGI [9]: 52.1 µM | TGI [10]: > 100 µM | TGI [12]: 47 µM

COc1cc(C2C(C(=O)Nc3ccccc3)=C(C)NC(C)=C2C(=O)Nc2ccccc2)ccc1O
TGI [1]: > 100 µM | TGI [3]: > 100 µM | TGI [4]: > 100 µM | TGI [5]: 33.8 µM | TGI [6]: 40 µM | TGI [10]: > 100 µM | TGI [12]: > 100 µM

CCC1(CN(C)C)CC/C(=C\c2ccc3c(c2)OCO3)C1=O (centres undefined)
TGI [1]: > 100 µM | TGI [2]: > 100 µM | TGI [3]: > 100 µM | TGI [4]: > 100 µM | TGI [5]: > 100 µM | TGI [6]: > 100 µM | TGI [7]: > 100 µM | TGI [8]: > 100 µM | TGI [9]: > 100 µM | TGI [10]: > 100 µM | TGI [12]: > 100 µM

COc1ccc(C(=O)C=C2NCCN2)cc1
TGI [1]: > 100 µM | TGI [2]: > 100 µM | TGI [3]: > 100 µM | TGI [4]: > 100 µM | TGI [5]: > 100 µM | TGI [6]: > 100 µM | TGI [7]: > 100 µM | TGI [8]: > 100 µM | TGI [9]: > 100 µM | TGI [10]: > 100 µM | TGI [12]: > 100 µM

CCC1(OC(C)=O)C(=O)OCc2c1cc1n(c2=O)Cc2cc3ccccc3nc2-1 (centres undefined)
TGI [1]: > 100 µM | TGI [3]: > 100 µM | TGI [4]: > 100 µM | TGI [5]: > 100 µM | TGI [6]: > 100 µM | TGI [7]: 13.5 µM | TGI [8]: > 33 µM | TGI [9]: 15.2 µM | TGI [10]: > 100 µM | TGI [12]: 8.19 µM

O=C1c2cc(CCl)sc2C(=O)c2ccsc21
TGI [1]: 0.417 µM | TGI [2]: 1.12 µM | TGI [3]: 2.74 µM | TGI [4]: 0.797 µM | TGI [5]: 2.56 µM | TGI [6]: 2.84 µM | TGI [7]: 0.149 µM | TGI [8]: 0.0462 µM | TGI [9]: 1.12 µM | TGI [10]: 0.746 µM | TGI [11]: 0.562 µM | TGI [12]: 0.962 µM

From PubChem BioAssay (NCI)
